Converted amounts (≈) assume the structure as drawn.
How the values were obtained:
[1] = tested on: Pseudomonas aeruginosa strain PA01; test: Bacterial killing curves with and without CF patient sputum
Pseudomonas aeruginosa = test: Broth microdilution MIC (Example 12)
Escherichia coli = test: Broth microdilution MIC (Example 12)
P. aeruginosa = test: FIC checkerboard assay; type: cell-based; conditions: during FIC testing
B. cepacia = test: FIC checkerboard assay; type: cell-based; conditions: during FIC testing
B. cenocepacia = test: FIC checkerboard assay; type: cell-based; conditions: during FIC testing
Acinetobacter baumannii = test: Broth microdilution MIC (Example 12)
Klebsiella pneumoniae = test: Broth microdilution MIC (Example 12)

C1C[S][Bi]([S]CC[S][Bi]2[S]CC[S]2)[S]1 [BisEDT, bismuth-1,2-ethanedithiol]
bactericidal activity against PA01 ([1]; 0.1 μg/mL): not bactericidal
effect of CF patient sputum on bactericidal activity ([1]; 10% CF patient sputum): partially inhibited

C[C@@H](O)[C@H]1C(=O)N2C(C(=O)O)=C(S[C@@H]3CN[C@H](C(=O)N(C)C)C3)[C@H](C)[C@H]12 [MEM]
MIC (Pseudomonas aeruginosa; P. aeruginosa CDC 230, VIM/OXA): >8 µg/mL
MIC (Pseudomonas aeruginosa; P. aeruginosa CDC 231, KPC/OXA): >8 µg/mL
MIC (Pseudomonas aeruginosa; P. aeruginosa CDC 241, IMP/OXA): >8 µg/mL
MIC (Pseudomonas aeruginosa; P. aeruginosa CDC 246, NDM/OXA): >8 µg/mL
MIC (Pseudomonas aeruginosa; P. aeruginosa CDC 250, NDM/OXA): >8 µg/mL
MIC (Pseudomonas aeruginosa; P. aeruginosa CDC 356, KPC): >8 µg/mL
MIC (Pseudomonas aeruginosa; P. aeruginosa CDC 439, IMP): >8 µg/mL
MIC (Pseudomonas aeruginosa; P. aeruginosa CDC 444, VIM): >8 µg/mL
MIC (Pseudomonas aeruginosa; P. aeruginosa CDC 457, VIM): >8 µg/mL
MIC (Pseudomonas aeruginosa; P. aeruginosa CDC 516, KPC/AmpC): >8 µg/mL
MIC (Pseudomonas aeruginosa; P. aeruginosa CDC 518, KPC/AmpC): >8 µg/mL
MIC (Escherichia coli; E. coli ATCC 35218, ESBL): ≤0.008 µg/mL
MIC (Escherichia coli; E. coli ATCC BAA-2471, NDM): >8 µg/mL
MIC (Escherichia coli; E. coli CDC 114, ESBL/KPC): 2 µg/mL (≈ 5.22 µM)
MIC (Escherichia coli; E. coli CDC 118, ESBL/NDM): 0.06 µg/mL (≈ 0.156 µM)
MIC (Escherichia coli; E. coli CDC 435, NDM): >8 µg/mL
MIC (Escherichia coli; E. coli CDC 451, KPC): 1 µg/mL (≈ 2.61 µM)
MIC (Escherichia coli; E. coli CDC 503, ESBL/NDM): 8 µg/mL (≈ 20.9 µM)
MIC (Escherichia coli; E. coli MMX 5745, KPC): 2 µg/mL (≈ 5.22 µM)
MIC (Escherichia coli; E. coli MMX 5755, ESBL): 0.015 µg/mL (≈ 0.0391 µM)
MIC (Escherichia coli; E. coli MMX 5756, ESBL): ≤0.008 µg/mL
MIC (Escherichia coli; E. coli MMX 5758, ESBL): ≤0.008 µg/mL
MIC (P. aeruginosa; P. aeruginosa isolate 103 (ATCC 25922), each agent tested alone, one replicate, for QC): 1 µg/mL
MIC (P. aeruginosa; P. aeruginosa isolate 6322 (MEM-R, TOB-R, AMK-R, CIP-R, AZT-R)): 16 µg/mL
MIC (P. aeruginosa; P. aeruginosa isolate 6977 (MEM-I, TOB-R, CIP-R, AZT-I)): 8 µg/mL
MIC (P. aeruginosa; P. aeruginosa isolate 7745 (MEM-R, CIP-R, AZT-R)): 16 µg/mL
MIC (P. aeruginosa; P. aeruginosa isolate 8798 (MEM-R, TOB-R, AMK-R, CIP-R, AZT-R, COL-R)): 32 µg/mL
MIC (P. aeruginosa; P. aeruginosa isolate 9108 (CIP-R, AZT-I)): 1 µg/mL
MIC (B. cepacia; B. cepacia isolate 0546): 4 µg/mL
MIC (B. cepacia; B. cepacia isolate 1793): 4 µg/mL
MIC (B. cenocepacia; B. cenocepacia isolate 0548 (CIP-R)): 4 µg/mL
MIC (B. cenocepacia; B. cenocepacia isolate 0813 (CIP-I)): 2 µg/mL
MIC (Acinetobacter baumannii; A. baumannii CDC 273, ESBL/OXA): >8 µg/mL
MIC (Acinetobacter baumannii; A. baumannii CDC 274, ESBL/OXA): >8 µg/mL
MIC (Acinetobacter baumannii; A. baumannii CDC 275, ESBL/OXA): >8 µg/mL
MIC (Acinetobacter baumannii; A. baumannii CDC 277, ESBL/OXA): >8 µg/mL
MIC (Acinetobacter baumannii; A. baumannii CDC 284, ESBL/OXA): >8 µg/mL
MIC (Acinetobacter baumannii; A. baumannii CDC 307, OXA): 8 µg/mL (≈ 20.9 µM)
MIC (Acinetobacter baumannii; A. baumannii CDC 308, ESBL/OXA): 8 µg/mL (≈ 20.9 µM)
MIC (Acinetobacter baumannii; A. baumannii CDC 311, OXA): >8 µg/mL
MIC (Acinetobacter baumannii; A. baumannii CDC 312, OXA): 4 µg/mL (≈ 10.4 µM)
MIC (Acinetobacter baumannii; A. baumannii CDC 313, ESBL/OXA): >8 µg/mL
MIC (Acinetobacter baumannii; A. baumannii NCTC 13304, OXA): >8 µg/mL
MIC (Klebsiella pneumoniae; K. pneumoniae ATCC BAA-1705, ESBL/KPC): 8 µg/mL (≈ 20.9 µM)
MIC (Klebsiella pneumoniae; K. pneumoniae CDC 112, KPC): >8 µg/mL
MIC (Klebsiella pneumoniae; K. pneumoniae CDC 113, ESBL/KPC): >8 µg/mL
MIC (Klebsiella pneumoniae; K. pneumoniae CDC 115, ESBL/KPC): >8 µg/mL
MIC (Klebsiella pneumoniae; K. pneumoniae CDC 120, ESBL/KPC): >8 µg/mL
MIC (Klebsiella pneumoniae; K. pneumoniae CDC 126, ESBL/KPC): 4 µg/mL (≈ 10.4 µM)
MIC (Klebsiella pneumoniae; K. pneumoniae CDC 129, ESBL/KPC): 8 µg/mL (≈ 20.9 µM)
MIC (Klebsiella pneumoniae; K. pneumoniae CDC 135, ESBL/VIM): 1 µg/mL (≈ 2.61 µM)
MIC (Klebsiella pneumoniae; K. pneumoniae CDC 138, ESBL/NDM): >8 µg/mL
MIC (Klebsiella pneumoniae; K. pneumoniae CDC 158, ESBL/NDM/OXA): >8 µg/mL
MIC (Klebsiella pneumoniae; K. pneumoniae MMX 9029, ESBL): 0.015 µg/mL (≈ 0.0391 µM)

Source: patent US11464749B2, “Bismuth-thiol compositions and methods of use” (Microbion Corporation, priority 2018, dated 2022)
